# Columns and labels:
# AQ STING (G230A-R293Q) = molecular target: T1, AQ STING (G230A-R293Q) (Homo sapiens, UniProt Q86WV6, G230A/H232R/R293Q); experiment: Differential Scanning Fluorimetry with AQ STING; type: binding; conditions: thermal shift, truncated human AQ STING 0.1 mg/ml, 150 μM CDN; for ΔTm at 150 µM: read-out: DSF ΔTm AQ STING
# T1 construct: truncated human WT STING or AQ STING (amino acid residues 140-343); 8xHis (N, cleaved yes); SUMO (N, cleaved yes); made in house; host or cells: E. coli Rosetta-gami B (DE3)
# T1 sequence (Q86WV6 140-343 G230A/H232R/R293Q): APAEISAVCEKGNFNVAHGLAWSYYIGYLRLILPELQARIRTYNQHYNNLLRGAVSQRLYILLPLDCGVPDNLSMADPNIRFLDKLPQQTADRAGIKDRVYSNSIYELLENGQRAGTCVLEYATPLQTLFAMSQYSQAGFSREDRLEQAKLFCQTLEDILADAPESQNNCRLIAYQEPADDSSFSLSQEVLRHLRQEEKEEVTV
# Description: (§1) Purified PCR products were cleaved with restriction enzymes BamHI (cat. #R0136S, NEB, Ipswich, USA) and NotI (cat. #R0189S, NEB, Ipswich, USA) and cloned into the pSUMO vector linearized with the identical enzymes.
# (§2) DNase I (cat. #D5025, Sigma Aldrich, Czech Republic) and RNase A (cat. #R6513, Sigma Aldrich, Czech Republic) were added (final concentration 50 μg/ml) together with MgCl2 (final concentration 5 mmol·l^−1) to the homogenate and bacteria were lysed using French Press G-M™ High-Pressure Cell Press Homogenizer (1500 psi, 3 cycles). […] The resin was poured into a chromatography column, washed with 50 ml buffer A (50 mmol·l^−1 TrisCl (pH 8.0), 800 mmol·l^−1 NaCl, 3 mmol·l^−1 β-mercaptoethanol; 10% glycerol; 20 mmol·l^−1 imidazole) and 8-His-SUMO tagged STING proteins were eluted with 15 ml buffer A containing 300 mmol·l^−1 imidazole. […] Proteins were concentrated with Amicon® Ultra-15 10 K device (cat. #UFC901008, Merck Millipore, Billerica, USA) and flash frozen in liquid N2.
# (§3) 20 μL solutions of the reaction mixtures were pipetted in triplicates into 96 well optical reaction plates and thermal denaturation of samples were performed on real time PCR cycler (LightCycler® 480 Instrument II—Roche, Basel, Switzerland). The first derivative of the thermal denaturation curves was performed to calculate denaturing temperatures of STING-CDN complexes and STING apoproteins. The thermal shift for each CDN was calculated by subtracting the average denaturing temperature of STING apoprotein from the average denaturing temperature of STING CDN complex.
# WT STING [1] = molecular target: T2, WT STING (Homo sapiens, UniProt Q86WV6, H232R); experiment: Differential Scanning Fluorimetry with WT STING; type: binding; set-up: truncated human WT STING or AQ STING (amino acid residues 140-343); 8xHis (N, cleaved yes); SUMO (N, cleaved yes); made in house; host or cells: E. coli Rosetta-gami B (DE3); conditions: thermal shift, truncated human WT STING 0.1 mg/ml, 150 μM CDN; for ΔTm at 150 µM: read-out: DSF ΔTm WT STING
# Description: as §1, §2, §3
# Target sequence in this assay (Q86WV6 140-343 H232R): as the sequence (Q86WV6 140-343 G230A/H232R/R293Q) above, with A91G, Q154R counted along it
# WT STING [2] = molecular target: T2, WT STING; experiment: Digitonin assay using 293T wtSTING-FL reporter cells; type: cell-based; conditions: 293T wtSTING-FL cells, ISRE firefly luciferase reporter, digitonin buffer 30 minutes, then 5 hours
# Text: Two complementary oligonucleotides of the sequence […] […] […] […] […] […] […] The oligonucleotides were mixed in equal molar amounts, hybridized, and cleaved by restriction endonucleases HindIII (cat. #. R0104S, NEB, Ipswich, USA) and BglII (cat. #R0144S, NEB, Ipswich, USA). Ultimately, they were ligated into plasmid pGL4.27 (cat. #E6651, Promega, Madison, USA) linearized with the same enzymes. As result the sequence with four ISRE sites was placed upstream of the minimum promoter of firefly luciferase reporter gene.
# After 5 minutes incubation at room temperature (RT), 250 μL of the mixture was added dropwise to the cells in one well. Cells were incubated 36 hours at 37° C. with 5% CO2, and then detached with 0.05% Trypsin and 0.22 g/L EDTA (both cat. #L0941, Biowest, Riverside, USA).
# Transfected cells were seeded onto poly-D-lysine coated six well plates at density 50,000 cells per 1 cm^2 in DMEM medium with high glucose containing 10% heat inactivated FBS, 30 μg/mL blasticidin (cat. #ant-bl-05, InvivoGen, San Diego, USA), 0.06 mg/ml Penicillin G and 0.1 mg/ml Streptomycin Sulfate (both cat. #. L0018, Biowest, Riverside, USA). The medium was replenished every 3-4 days until visible colonies of cells resistant to blasticidin were formed.
# Blasticidin resistant cells stably expressing WT STING were further transfected with pGL64.27-4×ISRE plasmid following the same procedure as described above. […] Homogeneous culture of stably double transfected cells was prepared by limiting dilution of cells in 96 well plates and wells with cells were selected that originated from a single cell.
# The medium was removed next day and three fold serial dilutions of compounds in Digitonin buffer containing 50 mmol·l^−1 HEPES (cat. #H3375, Sigma Aldrich, Czech Republic) pH 7.0, 100 mmol·l^−1 KCl, 3 mmol·l^−1 MgCl2, 0.1 mmol·l^−1 DTT (cat. #D0632, Sigma Aldrich, Czech Republic), 85 mmol·l^−1 Sucrose (cat. #S7903, Sigma Aldrich, Česká Republika), 0.2% BSA (cat. #A2153, Sigma Aldrich, Czech Republic), 1 mmol·l^−1 ATP (cat. #A1852, Sigma Aldrich, Czech Republic), 0.1 mmol·l^−1 GTP (cat. #G8877, Sigma Aldrich, Czech Republic), and 10 μg/mL Digitonin A (cat. #D141, Sigma Aldrich, Czech Republic) were added to the cells. The buffer was removed after 30 minutes incubation at 37° C. with 5% CO2, the cells were washed once with 100 μl of cultivation medium, and 100 μl of medium was added to each well. The plates with cells were incubated for 5 hours at 37° C. with 5% CO2, 50 μl of the medium was removed and 30 μl of ONE-Glo™ Luciferase Assay System reagent (cat. #E6120, Promega, Madison, USA) was added to each well. Luminesce was read on Synergy H1 (Biotek, Winooski, USA).
# Target sequence in this assay (Q86WV6 whole entry H232R, the tested form may be a part): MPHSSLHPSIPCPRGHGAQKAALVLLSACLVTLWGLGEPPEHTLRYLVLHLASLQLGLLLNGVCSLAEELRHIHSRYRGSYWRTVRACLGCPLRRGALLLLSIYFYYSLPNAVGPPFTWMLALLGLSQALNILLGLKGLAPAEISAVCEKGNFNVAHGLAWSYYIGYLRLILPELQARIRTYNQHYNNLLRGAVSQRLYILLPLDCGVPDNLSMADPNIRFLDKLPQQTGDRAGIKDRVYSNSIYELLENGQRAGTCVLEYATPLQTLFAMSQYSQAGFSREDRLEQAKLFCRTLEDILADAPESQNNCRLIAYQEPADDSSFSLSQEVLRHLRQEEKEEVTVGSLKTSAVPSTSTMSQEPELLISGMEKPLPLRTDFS
DSF ΔTm AQ STING (AQ STING (G230A-R293Q)) [°C],DSF ΔTm WT STING (WT STING [1]) [°C],EC50 (WT STING [2]) [µM],ΔTm at 150 µM (AQ STING (G230A-R293Q)) [°C],ΔTm at 150 µM (WT STING [1]) [°C],Compound
3.3,0.1,10.4,–,–,"2-amino-9-((2R,3R,3aS,7aR,9R,10R,10aS,15aR)-2-(6-amino-9H-purin-9-yl)-3,5,10,13-tetrahydroxy-5,13-dioxidodecahydro-2H-difuro[3,2-d:3′,2′-k][1,3,7,10]tetraoxa[2,8]diphosphacyclotridecin-9-yl)-1,9-dihydro-6H-purin-6-one [Example 2]"
12.7,4.0,0.11,–,–,"2-amino-9-((2R,3aS,7aR,9R,10R,10aR,15aR)-9-(6-amino-9H-purin-9-yl)-10-fluoro-5,13-dihydroxy-5,13-dioxidodecahydro-2H-difuro[3,2-d:3′,2′-k][1,3,7,10]tetraoxa[2,8]diphosphacyclotridecin-2-yl)-1,9-dihydro-6H-purin-6-one [Example 15]"
19.4,11.5,0.03,–,–,"Nc1nc2c(ncn2[C@@H]2O[C@@H]3COP(=O)(O)O[C@@H]4[C@H](O)[C@@H](COP(=O)(O)O[C@@H]2[C@@H]3O)O[C@H]4n2cnc3c(N)ncnc32)c(=O)[nH]1 [2′2′-cGAMP, reference compound]"
9.3,2.6,0.3,–,–,"Nc1ncnc2c1ncn2[C@@H]1O[C@@H]2COP(=O)(O)O[C@H]3[C@@H](O)[C@H](n4cnc5c(N)ncnc54)O[C@@H]3COP(=O)(O)O[C@H]2[C@H]1O [3′3′-c-di-AMP, reference compound]"
7.7,2.6,5.8,–,–,"Nc1nc2c(ncn2[C@@H]2O[C@@H]3COP(=O)(O)O[C@H]4[C@@H](O)[C@H](n5cnc6c(=O)[nH]c(N)nc65)O[C@@H]4COP(=O)(O)O[C@H]3[C@H]2O)c(=O)[nH]1 [3′3′-c-di-GMP, reference compound]"
–,–,12.5,3.1,0,"Nc1nc2c(ncn2[C@@H]2O[C@@H]3COP(=O)(O)COC4C(O)[C@H](n5cnc6c(N)ncnc65)O[C@@H]4COP(=O)(O)OC3C2O)c(=O)[nH]1 (stereo partly drawn) [Example 3, 2-amino-9-((2R,3R,3aS,7aR,9R,10R,10aS,15aR)-9-(6-amino-9H-purin-9-yl)-3,5,10,13-tetrahydroxy-5,13-dioxidodecahydro-2H-difuro[3,2-d:3′,2′-k][1,3,7,10]tetraoxa[2,8]diphosphacyclotridecin-2-yl)-1,9-dihydro-6H-purin-6-one]"
–,–,0.05,13.6,4.8,"Nc1nc2c(ncn2[C@@H]2O[C@@H]3COP(=O)(O)OC4C(F)[C@H](n5cnc6c(N)ncnc65)O[C@@H]4COP(=O)(O)COC3C2O)c(=O)[nH]1 (stereo partly drawn) [Example 4, 2-amino-9-((2R,3R,3aR,7aR,9R,10R,10aS,15aR)-2-(6-amino-9H-purin-9-yl)-3-fluoro-5,10,13-trihydroxy-5,13-dioxidodecahydro-2H-difuro[3,2-d:3′,2′-k][1,3,7,10]tetraoxa[2,8]diphosphacyclotridecin-9-yl)-1,9-dihydro-6H-purin-6-one]"
–,–,0.1,12,4.1,"Nc1nc2c(ncn2[C@@H]2O[C@@H]3COP(=O)(O)COC4C(O)[C@H](n5cnc6c(N)ncnc65)O[C@@H]4COP(=O)(O)OC3C2F)c(=O)[nH]1 (stereo partly drawn) [Example 5, 2-amino-9-((2R,3R,3aR,7aR,9R,10R,10aS,15aR)-9-(6-amino-9H-purin-9-yl)-3-fluoro-5,10,13-trihydroxy-5,13-dioxidodecahydro-2H-difuro[3,2-d:3′,2′-k][1,3,7,10]tetraoxa[2,8]diphosphacyclotridecin-2-yl)-1,9-dihydro-6H-purin-6-one]"
–,–,> 50,0,0.1,"Nc1nc2c(ncn2[C@@H]2O[C@@H]3COP(=O)(O)COC4C(O)[C@H](n5cnc6c(=O)[nH]c(N)nc65)O[C@@H]4COP(=O)(O)COC3C2O)c(=O)[nH]1 (stereo partly drawn) [Example 6, 9,9′-((2R,3R,3aS,8aR,10R,11R,11aS,16aR)-3,6,11,14-tetrahydroxy-6,14-dioxidododecahydrodifuro[3,2-e:3′,2′-l][1,4,8,11]tetraoxa[2,9]diphosphacyclotetradecine-2,10-diyl)bis(2-amino-1,9-dihydro-6H-purin-6-one)]"
–,–,0.03,15,5.6,"Nc1nc2c(ncn2[C@@H]2O[C@@H]3COP(=O)(O)COC4C(F)[C@H](n5cnc6c(N)ncnc65)O[C@@H]4COP(=O)(O)OC3C2O)c(=O)[nH]1 (stereo partly drawn) [Example 7, 2-amino-9-((2R,3R,3aS,7aR,9R,10R,10aR,15aR)-9-(6-amino-9H-purin-9-yl)-10-fluoro-3,5,13-trihydroxy-5,13-dioxidodecahydro-2H-difuro[3,2-d:3′,2′-k][1,3,7,10]tetraoxa[2,8]diphosphacyclotridecin-2-yl)-1,9-dihydro-6H-purin-6-one]"
–,–,0.008,18.6,10.7,"Nc1nc2c(ncn2[C@@H]2O[C@@H]3COP(=O)(O)COC4C(F)[C@H](n5cnc6c(N)ncnc65)O[C@@H]4COP(=O)(O)OC3C2F)c(=O)[nH]1 (stereo partly drawn) [Example 8, 2-amino-9-((2R,3R,3aR,7aR,9R,10R,10aR,15aR)-9-(6-amino-9H-purin-9-yl)-3,10-difluoro-5,13-dihydrox-5,13-diox-idodecahdro-2H-difuro[3,2-d:3′,2′-k][1,3,7,10]tetraoxa[2,8]diphosphacyclotridecin-2-yl)-1,9-dihydro-6H-purin-6-one]"
0.1,0.1,> 100,–,–,"Nc1ncnc2c1ncn2[C@@H]1O[C@@H]2COP(=O)(O)COC3C(O)[C@H](n4cnc5c(N)ncnc54)O[C@@H]3COP(=O)(O)COC2C1O (stereo partly drawn) [Example 9, (2R,3S,3aS,8aR,10R,11S,11aS,16aR)-2,10-bis(6-amino-9H-purin-9-yl)-3,6,11,14-tetrahydroxvdodecahydrodifuro[3,2-e:3′,2′-l][1,4,8,11]tetraoxa[2,9]diphosphacyclotetradecine 6,14-dioxide]"
